One data set deals with T1, 5-lipoxygenase (5-LO) (Homo sapiens, UniProt P09917).
T1 construct: human peripheral blood mononuclear cells and each of test compounds dissolved in DMSO (final concentration: 1%) were preincubated; endogenous in cells; host or cells: human peripheral blood mononuclear cells
T1 sequence (P09917 1-674): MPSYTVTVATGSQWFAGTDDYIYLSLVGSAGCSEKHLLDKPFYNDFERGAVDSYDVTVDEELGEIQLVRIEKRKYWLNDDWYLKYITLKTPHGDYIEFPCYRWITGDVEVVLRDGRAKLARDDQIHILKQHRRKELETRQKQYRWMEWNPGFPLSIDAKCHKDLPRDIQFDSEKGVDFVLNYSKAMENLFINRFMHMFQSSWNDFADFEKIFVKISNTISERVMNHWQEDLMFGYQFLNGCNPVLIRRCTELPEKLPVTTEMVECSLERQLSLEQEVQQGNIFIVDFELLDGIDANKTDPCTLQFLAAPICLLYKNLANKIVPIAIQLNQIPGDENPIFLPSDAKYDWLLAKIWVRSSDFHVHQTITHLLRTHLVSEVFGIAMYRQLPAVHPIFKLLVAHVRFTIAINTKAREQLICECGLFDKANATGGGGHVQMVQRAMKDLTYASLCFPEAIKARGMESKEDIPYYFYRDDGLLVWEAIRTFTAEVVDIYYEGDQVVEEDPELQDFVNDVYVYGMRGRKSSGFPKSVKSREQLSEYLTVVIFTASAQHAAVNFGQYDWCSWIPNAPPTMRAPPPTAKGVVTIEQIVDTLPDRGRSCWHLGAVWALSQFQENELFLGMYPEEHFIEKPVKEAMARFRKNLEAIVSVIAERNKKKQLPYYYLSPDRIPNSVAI
Put plainly: 5-lipoxygenase (5-LO) inhibitory activity, leukotriene B4 production in human peripheral blood mononuclear cells. It is filed as cell-based. As to conditions: human peripheral blood mononuclear cells, A23187, leukotriene B4 production. The method, then:
A 5-LO inhibitory activity was measured by a partially modified process of a process of Carter et al. (Carter G. W, et al, J. Pharmacol. Exp. Ther.: 256, 929-37, 1991). That is, human peripheral blood mononuclear cells and each of test compounds dissolved in DMSO (final concentration: 1%) were preincubated (37° C., 15 minutes) in a Hanks' balanced salt solution and 30 μM A23187 was further added, followed by incubation (37° C., 30 minutes). The amount of leukotriene B4 produced as a result of incubation was determined by enzyme immunoassay and a 50% production inhibitory concentration (μM) against 5-LO of each test compound was calculated.

Data set [1] has as its target T2, 15-LO obtained from reticulocyte of rabbit (Oryctolagus cuniculus, UniProt P12530).
T2 construct: 15-LO obtained from reticulocyte of rabbit; from tissue; host or cells: rabbit reticulocytes
T2 sequence (P12530 1-663): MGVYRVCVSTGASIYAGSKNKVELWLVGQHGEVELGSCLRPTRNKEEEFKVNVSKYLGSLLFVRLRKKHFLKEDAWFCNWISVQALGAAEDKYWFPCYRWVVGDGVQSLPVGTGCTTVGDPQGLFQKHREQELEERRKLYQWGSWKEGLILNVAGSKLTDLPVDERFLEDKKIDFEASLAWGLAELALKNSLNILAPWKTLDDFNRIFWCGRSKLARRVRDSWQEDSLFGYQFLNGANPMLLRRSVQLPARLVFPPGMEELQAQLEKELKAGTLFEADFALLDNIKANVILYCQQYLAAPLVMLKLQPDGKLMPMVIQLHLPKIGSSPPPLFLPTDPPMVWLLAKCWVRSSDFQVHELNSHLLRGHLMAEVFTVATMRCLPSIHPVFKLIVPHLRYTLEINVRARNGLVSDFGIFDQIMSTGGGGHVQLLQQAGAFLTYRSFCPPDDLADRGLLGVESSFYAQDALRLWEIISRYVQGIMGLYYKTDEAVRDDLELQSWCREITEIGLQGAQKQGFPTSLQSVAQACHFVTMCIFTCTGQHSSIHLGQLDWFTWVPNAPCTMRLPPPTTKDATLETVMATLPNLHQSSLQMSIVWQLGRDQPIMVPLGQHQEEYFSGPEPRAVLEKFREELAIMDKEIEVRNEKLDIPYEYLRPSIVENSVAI
Put plainly: 15-lipoxygenase (15-LO) inhibitory activity, 15-HETE production. In kind it is biochemical. The settings on record: 15-LO from reticulocyte of rabbit, linoleic acid. The method, then: A 15-LO inhibitory activity was measured by a partially modified process of a process of Auerbach et al. (Auerbach B. J, et al., Anal. Biochem.: 201, 375-80, 1992). That is, 15-LO obtained from reticulocyte of rabbit and each of test compounds dissolved in DMSO (final concentration: 1%) were preincubated (4° C., 15 minutes) in phosphoric acid buffer (pH 7.4) and 256 μM linoleic acid was further added, followed by incubation (4° C., 10 minutes). The amount of 15-HETE produced as a result of incubation was determined by spectrophotometry (OD660nm) and 50% production inhibitory concentration (μM) against 15-LO of each test compound was calculated. Compounds (R-3) and (R-4) (edaravone) of the following formulas were used as a control drug.

The subject of data set [2] is lipid peroxidation activity of each tissue homogenate (brain, heart and kidney). Put plainly: Tissue migration properties: ex vivo lipid peroxidation inhibition in brain, heart and kidney homogenates. As to conditions: SD male rats, 100 mg/kg intraperitoneally, 30 minutes after administration. As to the method:
An in vitro lipid peroxidation inhibition of the compounds of the present invention was evaluated by measuring a lipid peroxidation activity in a rat brain homogenate according to a process of Malvy, c., et al., Biochemical and Biophysical Research Communications, 1980, Vol. 95, p. 734-737. That is, a rat brain was extracted and a 5-fold amount of an aqueous phosphoric acid buffered saline solution (pH 7.4) (hereinafter abbreviated to PBS) was added to the brain under ice cooling, followed by homogenization using a Teflon homogenizer and further centrifugation at 10,000 g for 20 minutes to prepare a brain homogenate as a supernatant. To the brain homogenate thus prepared, 500 μM cysteine, 5 μM sulfuric acid monobasic iron and 100 mM KCl were added, followed by incubation at 37° C. for 30 minutes. Malondialdehyde produced by the […] of lipid peroxidation was measured by a thiobarbituric acid process.
Tissue migration properties of the compounds of the present invention were evaluated by measuring an ex vivo lipid peroxidation inhibition. A solution or suspension prepared by dissolving or suspending each of test compounds in an aqueous physiological saline solution or a 1% poly oxy ethylene hydrogenated castor oil (NIKKOL HCO-60, manufactured by Nikko Chemicals Co., Ltd.) physiological saline solution was intraperitoneally administered to SD male rats (one group: 3 rats, 6 weeks old) (available from Nippon SLC Co., Ltd.) at a dose of 100 mg/kg. 30 Minutes after administration, rats were bled to death by cutting the carotid artery and then the brain, heart and kidney were extracted. A lipid peroxidation activity of each tissue homogenate was measured by the process described in Example 18. An inhibition ratio in each tissue of the compounds of the present invention was determined from the amount of lipid peroxidation produced of a control group (physiological saline administration group) and a test compound administration group.

Data set [3] deals with abnormal behavior and fatality due to ferrous chloride. Put plainly: In vivo antioxidative activity: ferrous chloride administration into spinal subarachnoid cavity of mice. As to conditions: score after 60 minutes. Also noted: species or system Slc:ICR male mice. The method, then: An in vivo antioxidative activity of the compounds of the present invention was evaluated from an abnormal behavior due to administration of ferrous chloride into spinal subarachnoid cavity of mice as well as an inhibitory effect of a fatality rate according to the process described in J. Med. Chem., 1997, Vol. 40, p. 559-573. Using Slc:ICR male mice (one group: 3 to 7 mice, 5 weeks old) (available from Nippon SLC Co., Ltd.), 5 μl of a 50 mM ferrous chloride physiological saline solution was administered to the spinal canal through the space between the fifth lumbar vertebrae and the sixth lumbar vertebrae. 20 to 60 minutes after administration of ferrous chloride, symptoms were observed and a score after 60 minutes was determined from symptoms shown in Table 32. […] As is apparent from the results, the compounds of the present invention have an in vivo antioxidation action.

Data set [4] has as its system lipid peroxidation in retina homogenate. Put plainly: Retina migration properties: ex vivo retinal lipid peroxidation production inhibition. It is filed as in vivo. The settings on record: SD male rats, retina taken after 30 minutes. The method, then:
Retina migration properties of the compounds of the present invention were evaluated. To SD male rats (one group: 3 rats, 6 weeks old), a solution or suspension prepared by dissolving or suspending each of the test compounds in a 0.1N hydrochloric acid solution or a 1% poly oxy ethylene hydrogenated castor oil (NIKKOL HCO-60) solution was orally administered. After 30 minutes, both eyes were extracted and the retina was separated under ice cooling. A 5% homogenate solution of the retina was prepared in a 0.1M tris-hydrochloric acid buffer (pH 7.4) under ice cooling using a polytron homogenizer for a trace amount (NS-310E: manufactured by Nichion Irika Kiki Co., Ltd.) and, after autoxidation at 37° C. for one hour, the amount of lipid peroxidation produced was determined by a thiobarbituric acid process (MASUGI et al., vitamin 51, 21-29, 1977). A 30% inhibitory dose (ID30) was determined from the inhibition ratio at each dose. As is apparent from the results, the compounds of the present invention have an ex vivo retinal lipid peroxidation production inhibitory action and is also excellent in retina migration properties.

In the case of `Cc1c(C)c2c(c(C)c1N)CC(C)(CN1CCN(c3ccc(-c4ccn[nH]4)cc3)CC1)O2` (stereo not drawn) [Compound B-1-34], the melting point lay in the range of 205 to 207 °C. It took 162 nM to reach half-maximal inhibition at 5-lipoxygenase (5-LO) (IC50). For the same compound, in data set [1], the IC50 amounted to 5560 nM.

Regarding `Cc1c(C)c2c(c(C)c1N)CC(C)(CN1CCN(c3ccc(-n4ccnc4)cc3)CC1)O2` (racemic) [Compound B-1-2, 4-(±)-(5-amino-2,4,6,7-tetramethyldihydrobenzofuran-2-ylmethyl)-1-(4-imidazol-1-ylphenyl)piperazine], the “Ex vivo lipid peroxidation inhibition inhibition ratio (%) Brain” value in data set [2] (brain homogenate) was determined as 79%. Moreover, in data set [2] (heart homogenate), the “Ex vivo lipid peroxidation inhibition inhibition ratio (%) Heart” value is 93%. In data set [2] (kidney homogenate), the “Ex vivo lipid peroxidation inhibition inhibition ratio (%) Kidney” value is reported as 89%. Further, in data set [3] (intraperitoneal administration 30 minutes before ferrous chloride into spinal canal), the “In vivo antioxidation action 50% inhibitory concentration (ID50), Intraperitoneal administration” value turned out to be 27 mg/kg. For the same compound, the “In vivo antioxidation action 50% inhibitory concentration (ID50), Oral administration” value in data set [3] (oral administration 30 minutes before ferrous chloride into spinal canal) is 13 mg/kg. The “Lipid peroxidation inhibition 30% inhibitory concentration (ID30, oral administration) in ex vivo retina” value in data set [4] is recorded as 5.7 mg/kg.

By IC50 is commonly meant the point on the concentration scale where inhibition reaches its midpoint. Low readings indicate higher potency, high ones lower potency. Usually melting point stands for the temperature of the solid-liquid transition.

Values taken from patent US7553837B2, “Phenylazole compounds production process and antioxidants” (Nippon Soda Co., Ltd., priority 2003, dated 2009).
